In paper PMC11965660, “Isobavachalcone ameliorates Alzheimer disease pathology by autophagy-mediated clearance of amyloid beta and inhibition of NLRP3 inflammasome in primary astrocytes and 5x-FAD mice” (Frontiers in Pharmacology, 2025):
Entries after “also recorded” stand apart in the source; their conditions may differ.

Experiments:
[1] = system: primary astrocytes; assay: Cell viability assay (MTT and SRB); type: cell-based, C57BL/6J mice; conditions: 24 h, up to 100 μM
Experimental: For cell viability assay, primary astrocytes were seeded in 96 well plate and IBC treatment at different concentration was given for 24 h. For MTT assay, cells were treated with 1.25, 2.5, 5, 10, 20, 40, 80 and 100 μM of IBC, while for the SRB assay, 0.625, 1.25, 2.5, 5, […], 20, 40, 80 and 100 μM IBC treatment was given. MTT dye at a concentration of 2.5 mg/ml was added 4 h before experiment termination. Formazan crystals thus formed were dissolved in DMSO and absorbance was measured at 570 nm.
For the SRB assay, the experiment was terminated by adding 50% chilled TCA into the wells for 1 h. Pellets were washed five times with distilled water and kept drying. Cells were then incubated with SRB dye for 30 min at RT, followed by washing with 1% acetic acid thrice. After drying, pellets were dissolved in 10 mM Tris-HCl (pH-10.5) and absorbance was measured at 540 nm.

[2] = system: 5x-FAD mice; assay: Rotarod test; type: in vivo
From the text: (§1) Hemizygous 5x-FAD transgenic mice (B6.Cg-Tg(APPSwFlLon, PSEN1*M146L*L286V) 6799Vas/Mmjax; MMRRC Strain: 034848-JAX) on congenic C57BL/6J genetic background were used for experiments. The 5x-FAD mice were genotyped using APP-specific qPCR probes to detect the transgene as per the protocol of Jackson Laboratory. Six months old 5x-FAD mice were randomly divided into three groups (n = 5), based on their body weights, with three males and two females in each group. We used mixed-cohort of males and females for our study to exclude any gender biased effect of IBC. Also, AD symptoms are more pronounced in females than in males ([Aggarwal and Mielke, 2023]), making it possible that males and females respond differently to the drug and treatment. […]
(§2) To check the effect of IBC on the behavior of 5x-FAD mice, open field test (OFT), rotarod (Make; Ugo Basile, rota-rod for mice 7650) and radial arm maze (Make; Ugo Basile) tests were performed. […] After acclimatizing mice with rotarod for 5 days, their latency to fall was calculated on the day of analysis. […] Distance traveled, speed, time spent in corner and center zones and mobile episodes were recorded through an automated video tracking system using AnyMaze software. […] The movement of mice was tracked with the help of automated AnyMaze software connected with a tracking camera and various memory retention parameters were assessed.

[3] = system: 5x-FAD mice; assay: Open field test; type: in vivo; conditions: 25 and 50 mg/kg oral, vs 5x-FAD control
From the text: as §1, §2

[4] = system: IL-1β; assay: IL-1β in mice cortex by ELISA; type: in vivo, 5x-FAD mice; conditions: 25 and 50 mg/kg, vs 5x-FAD control
From the text: After the termination of experiments, the supernatant was collected and analyzed for levels of cytokines. For measuring IL-1β and IL-18, supernatant collected after NLRP3 inflammasome activation as mentioned above, was subjected to ELISA. For detection of IL-1β in mice cortex, mice cortices were isolated and homogenized in RIPA buffer to measure IL-1β in homogenates. The manufacturer’s protocol was followed for measuring the cytokines. The levels of measured cytokines were normalized with the total protein content of the cells. For total protein content of cell pellet lysed with lysis buffer (0.2 N NaCl and 1% Triton-X 100) was measured.
as §1

CC(C)=CCc1c(O)ccc(C(=O)/C=C/c2ccc(O)cc2)c1O [IBC, isobavachalcone]
toxicity in primary astrocytes (MTT and SRB) [1]: no toxicity; also recorded: non-toxic | latency to fall from rotarod ([2]; 25 mg/kg oral): 92 s | latency to fall from rotarod ([2]; 50 mg/kg oral): 118 s | exploratory behavior in open field [3]: improved exploratory behavior | IL-1β level in cortex [4]: highly significant decline
